Experiment [1] deals with HIV (H9/HTLV-IIIB) in C8166 cells. Put plainly: plaque assay: inhibition of syncytia formation in HIV-infected C8166 cells. It counts as cell-based. As to conditions: Human immunodeficiency virus 1, IIIB, 72 h, 50% inhibition of syncytia formation. In a few lines: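 C8166 cells (5×10^4/well) infected with 50× TCID50 H9/HTLV-IIIB in HEPES-buffered RPMI 1640 (pH 7.2), 10% FCS, with test compound in triplicate; 72 h at 37°, 5% CO2. Syncytia centers counted by phase-contrast microscopy; EC50 from percent inhibition versus serial dilutions by non-linear regression.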

The target in the next experiment is T1, HIV protease (Human immunodeficiency virus type 1 group M subtype B, UniProt P04585).
T1 construct: HIV protease was expressed in E. coli; made in house; host or cells: E. coli (plasmid pBRT1 prt+)
Put plainly: Recombinant HIV Protease HPLC Assay. It counts as biochemical. As to conditions: 37°, 30 min, pH 5.5. In a few lines:
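Recombinant protease from E. coli (pBRT1 prt+ construct), purified and diluted 1/38 for use, cleaves the decapeptide substrate VSFNFPQITL-NH2, containing an HIV polyprotein cleavage site. Inhibition of cleavage is monitored by HPLC.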

pEC50, pIC50: −log10 of the molar value.

What is called pEC50 is the negative decadic logarithm of the EC50, by convention in mol/L. Higher therefore signals a small EC50. By pIC50 is commonly meant the negative decadic logarithm of the IC50, by convention in mol/L. The molecule `Cc1ccnc(S[C@@H]2CCN(C[C@@H](O)[C@H](Cc3ccccc3)NC(=O)[C@@H](NC(=O)c3ccc4ccccc4n3)C(C)C)[C@H](C(=O)NC(C)(C)C)C2)n1` [Table V, entry 23, N-tert-butyl-1-{2(R)-hydroxy-4-phenyl-3(S)-{{N-(2-quinolylinylcarbonyl)valyl}amino}butyl}-4(R)-{(4-methyl-2-pyrimidinyl)thio}piperidine-2(S)-carboxamide] had a pEC50 in experiment [1] (Table V) of 7.80. Also, the pIC50 on HIV protease (Table V) is 8.55.

`CC(C)[C@H](NC(=O)c1ccc2ccccc2n1)C(=O)N[C@@H](Cc1ccccc1)[C@H](O)CN1CC[C@@H](OCc2cccnc2)C[C@H]1C(=O)NC(C)(C)C` [Table V, entry 24, N-tert-butyl-1-{2(R)-hydroxy-4-phenyl-3(S)-{{N-(2-quinolylinylcarbonyl)valyl}amino}butyl}-4(R)-(3-pyridinylmethoxy)piperidine-2(S)-carboxamide] gave a pEC50 in experiment [1] (Table V) of 7.28. Moreover, on HIV protease (Table V), the negative logarithm of the IC50 (pIC50) is 8.43.

Regarding `CC(C)(C)NC(=O)[C@@H]1C[C@H](Sc2ccccc2)CCN1C[C@@H](O)[C@H](Cc1ccccc1)NC(=O)[C@@H](NC(=O)c1ccc2ccccc2n1)C(C)(C)C` [Table VI, entry 1, N-tert-butyl-1-{2(R)-hydroxy-4-phenyl-3(S)-{{N-(2-quinolylinylcarbonyl)tert-butylglycyl}amino}butyl}-4(R)-(phenylthio)piperidine-2(S)-carboxamide], the pEC50 in experiment [1] (Table VI) was 7.92. The pIC50 at HIV protease (Table VI) was 8.52.

Turning to `Cc1cc(C)nc(S[C@@H]2CCN(C[C@@H](O)[C@H](Cc3ccccc3)NC(=O)[C@H](CC(N)=O)NC(=O)c3ccc4ccccc4n3)[C@H](C(=O)NC(C)(C)C)C2)n1` [Table VI, entry 2, N-tert-butyl-1-{2(R)-hydroxy-4-phenyl-3(S)-{{N-(2-quinolylinylcarbonyl)asparaginyl}amino}butyl}-4(R)-{(4,6-dimethyl-2-pyrimidinyl)}thiopiperidine-2(S)-carboxamide], in experiment [1] (Table VI), the pEC50 is 7.38. The pIC50 on HIV protease (Table VI) was 8.66.

Consider `CC(C)(C)NC(=O)[C@@H]1C[C@H](Sc2ncccn2)CCN1C[C@@H](O)[C@H](Cc1ccccc1)NC(=O)[C@H](CC(N)=O)NC(=O)c1ccc2ccccc2n1` [Table VI, entry 3, N-tert-butyl-1-{2(R)-hydroxy-4-phenyl-3(S)-{{N-(2-quinolylinylcarbonyl)asparaginyl}amino}butyl}-4(R)-(2-pyrimidinylthio)piperidine-2(S)-carboxamide], for which, in experiment [1] (Table VI), the pEC50 is 7.22. Besides, the pIC50 on HIV protease (Table VI) is 8.68.

With `CNC(=O)C[C@H](NC(=O)c1ccc2ccccc2n1)C(=O)N[C@@H](Cc1ccccc1)[C@H](O)CN1CC[C@@H](Oc2ccccc2)C[C@H]1C(=O)NC(C)(C)C` [Table VI, entry 4, N-tert-butyl-1-{2(R)-hydroxy-4-phenyl-3(S)-{{N-(2-quinolylinylcarbonyl)(N^4-methyl)asparaginyl}amino}butyl}-4(R)-phenoxypiperidine-2(S)-carboxamide], the pEC50 in experiment [1] (Table VI) is 7.89. Moreover, the pIC50 on HIV protease (Table VI) was 8.43.

Molecule `CC(C)(C)NC(=O)[C@@H]1C[C@H](SCc2cccnc2)CCN1C[C@@H](O)[C@H](Cc1ccccc1)NC(=O)[C@@H](NC(=O)c1ccc2ccccc2n1)C(C)(C)C` [Table VI, entry 5, N-tert-butyl-1-{2(R)-hydroxy-4-phenyl-3(S)-{{N-(2-quinolylinylcarbonyl)tert-butylglycyl}amino}butyl}-4(R)-{(3-pyridinylmethyl)thio}piperidine-2(S)-carboxamide] showed a negative logarithm of the EC50 (pEC50) in experiment [1] (Table VI) of 8.10. Also, the pIC50 at HIV protease (Table VI) was 8.66.

Turning to `C[C@@H](O)[C@H](NC(=O)c1ccc2ccccc2n1)C(=O)N[C@@H](Cc1ccccc1)[C@H](O)CN1CC[C@@H](S(=O)(=O)c2ccccc2)C[C@H]1C(=O)NC(C)(C)C` [Table VI, entry 6, N-tert-butyl-1-{2(R)-hydroxy-4-phenyl-3(S)-{{N-(2-quinolylinylcarbonyl)threonyl}amino}butyl}-4(R)-(phenylsulfonyl)piperidine-2(S)-carboxamide], the pEC50 in experiment [1] (Table VI) is 7.21. Besides, the pIC50 at HIV protease (Table VI) is 8.59.

Molecule `CC(C)(C)NC(=O)[C@@H]1C[C@H](S(=O)(=O)c2ccncc2)CCN1C[C@@H](O)[C@H](Cc1ccccc1)NC(=O)[C@@H](NC(=O)c1ccc2ccccc2n1)C(C)(C)C` [Table VI, entry 7, N-tert-butyl-1-{2(R)-hydroxy-4-phenyl-3(S)-{{N-(2-quinolylinylcarbonyl)tert-butylglycyl}amino}butyl}-4(R)-(4-pyridinylsulfonyl)piperidine-2(S)-carboxamide] showed a pEC50 in experiment [1] (Table VI) of 7.54. Also, the pIC50 at HIV protease (Table VI) was 8.68.

Regarding `CC(C)(C)NC(=O)[C@@H]1C[C@H](S(=O)(=O)c2ccccn2)CCN1C[C@@H](O)[C@H](Cc1ccccc1)NC(=O)[C@@H](NC(=O)c1ccc2ccccc2n1)C(C)(C)C` [Table VI, entry 8, N-tert-butyl-1-{2(R)-hydroxy-4-phenyl-3(S)-{{N-(2-quinolylinylcarbonyl)tert-butylglycyl}amino}butyl}-4(R)-(2-pyridinylsulfonyl)piperidine-2(S)-carboxamide], in experiment [1] (Table VI), the pEC50 is 7.36. Also, at HIV protease (Table VI), the negative-log IC50 (pIC50) was 8.54.

The molecule `Cc1cccc(C)c1OCC(=O)N[C@@H](Cc1ccccc1)[C@H](O)CN1CC[C@@H](SCc2cccnc2)C[C@H]1C(=O)NC(C)(C)C` [Table VII, entry 1, N-tert-Butyl-1-{3(S)-{{(2,6-dimethylphenoxy)acetyl}amino}-2(R)-hydroxy-4-phenylbutyl}-4(R)-{(3-pyridinylmethyl)thio}piperidine-2(S)-carboxamide] had a pEC50 in experiment [1] (Table VII) of 7.46. Further, the pIC50 on HIV protease (Table VII) is 8.57.

In the case of `Cc1cc(C)c(OCC(=O)N[C@@H](Cc2ccccc2)[C@H](O)CN2CC[C@@H](Sc3ccncc3)C[C@H]2C(=O)NC(C)(C)C)c(C)c1` [Table VII, entry 2, N-tert-butyl-1-{3(S)-{{(2,4,6-trimethylphenoxy)acetyl}amino}-2(R)-hydroxy-4-phenylbutyl}-4(R)-(4-pyridinylthio)piperidine-2(S)-carboxamide], in experiment [1] (Table VII), the pEC50 was 7.33. Besides, the pIC50 at HIV protease (Table VII) is 8.43.

`Cc1cccc(C)c1OCC(=O)N[C@@H](Cc1ccccc1)[C@H](O)CN1CC[C@@H](Sc2ccncc2)C[C@H]1C(=O)NC(C)(C)C` [Table VII, entry 4, N-tert-butyl-1-{3(S)-{{(2,6-dimethylphenoxy)acetyl}amino}-2(R)-hydroxy-4-phenylbutyl}-4(R)-(4-pyridinylthio)piperidine-2(S)-carboxamide] had a pEC50 in experiment [1] (Table VII) of 7.70. Moreover, the negative-log IC50 (pIC50) at HIV protease (Table VII) was 8.51.

As for `Cc1ccccc1OCC(=O)N[C@@H](Cc1ccccc1)[C@H](O)CN1CC[C@@H](Sc2ccncc2)C[C@H]1C(=O)NC(C)(C)C` [Table VII, entry 5, N-tert-butyl-1-{3(S)-{{(2-methylphenoxy)acetyl}amino}-2(R)-hydroxy-4-phenylbutyl}-4(R)-(4-pyridinylthio)piperidine-2(S)-carboxamide], the negative logarithm of the EC50 (pEC50) in experiment [1] (Table VII) was 6.85. The pIC50 at HIV protease (Table VII) was 8.21.

In experiment [1] (Table VII), `CC(C)(C)NC(=O)[C@@H]1C[C@H](Sc2ccncc2)CCN1C[C@@H](O)[C@H](Cc1ccccc1)NC(=O)c1ccc(Cl)cc1Cl` [Table VII, entry 6, N-tert-butyl-1-{3(S)-{{(2,4-dichlorophenyl)carbonyl}amino}-2(R)-hydroxy-4-phenylbutyl}-4(R)-(4-pyridinylthio)piperidine-2(S)-carboxamide] gave a pEC50 of 6.47. Also, the pIC50 at HIV protease (Table VII) is 8.27.

Source of the values: patent US5614533A, “Substituted pipecolinic acid derivatives as HIV protease inhibitors” (Bio-Mega/Boehringer Ingelheim Research, Inc., priority 1994, dated 1997).
